Results published in patent US12600732B2, “Bifunctional compounds for degrading BTK via ubiquitin proteosome pathway” (NURIX THERAPEUTICS, INC., priority 2019, dated 2026).

Tests used:
primary human T cells [1] = assay: T cell activation assay, IL-2 secretion (ELISA); type: cell-based; settings: for IL-2 secretion compared to baseline (anti-CD3/anti-CD28 stimulation alone): primary human T cells
Description: (§1) This example evaluates whether CTMs with IMiD activity affect T cell activation. […] These assays were performed to assess whether BTK CTMs with and without IMiD activity affected activation of primary human T cells after stimulation of the T cell receptor with anti-CD3/ati-CD28 stimulation. T cell activation was measured by IL-2 secretion (ELISA assay) and upregulation of activation markers CD25 and CD69 on the surface of T cells (flow cytometry). Data are presented as the fold-change of response relative to baseline (stimulation with anti-CD3/anti-CD28 stimulation in the absence of compound).

Ikaros = molecular target: T1, Ikaros (Homo sapiens, UniProt Q13422+Q96SW2); assay: Ikaros degradation in Mantle Cell Lymphoma lines (flow cytometry); type: cell-based; settings: treatment time 24 h
T1 construct: endogenous in cells; host or cells: Mino, Rec-1
From the text: (§2) Ikaros and Aiolos Degradation in Mantle Cell Lymphoma Lines (Ikaros and Aiolos Flow Cytometry)
(§3) This example evaluates the IMiD activity of CTMs in cellular models of Mantle Cell Lymphoma (MCL). […] These assays are to determine potency of CTMs for degrading IMiD neo-substrates in cellular models of MCL and to generate data to inform efficacy studies in MCL xenografts.

primary human T cells [2] = assay: T cell activation assay, CD25 and CD69 staining (flow cytometry); type: cell-based; settings: for CD25 Staining Anti-CD3/Anti-CD28 Stimulation / CD69 Staining Anti-CD3/Anti-CD28 Stimulation: fold-change of response relative to baseline; for expression of CD25 and CD69 compared to baseline (anti-CD3/anti-CD28 stimulation alone): primary human T cells
Description: as §1

Aiolos = molecular target: T2, Aiolos (Homo sapiens, UniProt Q96SW2+Q9UKT9); assay: Aiolos degradation in Mantle Cell Lymphoma lines (flow cytometry); type: cell-based; settings: treatment time 24 h
T2 construct: endogenous in cells; host or cells: Mino, Rec-1
From the text: as §2, §3

Rec-1 cells = assay: Cell viability assay (CellTiter-Glo), Rec-1 cells; type: cell-based
From the text: (§4) This example evaluates effects of CTM-mediated degradation on cell viability. […] Mino and Rec-1 are models of Mantle Cell Lymphoma, which is sensitive to IMiDs.

TMD8 cells = assay: Cell viability assay (CellTiter-Glo), TMD8 cells; settings: for EC50: Homo sapiens, TMD8, 72 h; for EMAX (% viable cells): TMD8 cells, treatment time 72 h
TMD8 C481S cells = assay: Cell viability assay (CellTiter-Glo), TMD8 C481S cells; settings: for EC50: Homo sapiens, TMD8, 72 h; for EMAX (% viable cells): TMD8 C481S cells, treatment time 72 h
Mino cells = assay: Cell viability assay (CellTiter-Glo), Mino cells; type: cell-based; settings: Mino cells, treatment time 72 h
From the text: as §4

BTK = BTK (Homo sapiens, UniProt Q06187); assay: BTK remaining in TMD8 WT mouse xenograft study; type: in vivo; set-up: from tissue; host or cells: TMD8 xenograft in CB.17 SCID mice; settings: IP, QD
From the text: Efficacy in Mouse Xenograft Models
(§5) This example examines the activity of various BTK CTMs in relevant disease models, including the WT and C481S TMD8 model, which models B cell malignancies with/without inhibitor-driven BTK mutations at C481.

TMD8 tumor cells = assay: TMD8 xenograft efficacy study (wild-type BTK); type: in vivo, mouse; settings: TMD8 WT, IP, QD
Description: […] Tumor growth inhibition (% TGI) were calculated on the final day of measurement using the equation [1−(T−T0/C−T0)]×100, where T and C represent the mean size of tumors in the treated (T) and control (C) groups, and T0 refers to the tumor size at randomization.
as §5

[3] = 1.4 nM, fold-change of response relative to baseline
[4] = 37 nM, fold-change of response relative to baseline
[5] = 333 nM, fold-change of response relative to baseline (stimulation without compound)

T1 sequence (Q13422 whole entry): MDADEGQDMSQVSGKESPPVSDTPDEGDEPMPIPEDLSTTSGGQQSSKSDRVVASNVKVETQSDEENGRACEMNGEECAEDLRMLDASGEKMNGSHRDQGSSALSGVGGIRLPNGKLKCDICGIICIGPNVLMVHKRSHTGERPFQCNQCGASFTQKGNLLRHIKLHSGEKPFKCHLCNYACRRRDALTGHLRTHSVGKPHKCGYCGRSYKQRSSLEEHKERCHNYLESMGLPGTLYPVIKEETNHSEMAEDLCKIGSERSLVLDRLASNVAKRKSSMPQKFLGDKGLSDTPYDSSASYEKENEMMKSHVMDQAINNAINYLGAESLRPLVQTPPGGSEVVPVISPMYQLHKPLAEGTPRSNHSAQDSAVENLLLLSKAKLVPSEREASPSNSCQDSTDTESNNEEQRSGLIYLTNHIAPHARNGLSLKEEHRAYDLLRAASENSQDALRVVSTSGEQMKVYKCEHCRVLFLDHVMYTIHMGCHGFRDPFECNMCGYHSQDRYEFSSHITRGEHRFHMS
T1 sequence (Q96SW2 whole entry): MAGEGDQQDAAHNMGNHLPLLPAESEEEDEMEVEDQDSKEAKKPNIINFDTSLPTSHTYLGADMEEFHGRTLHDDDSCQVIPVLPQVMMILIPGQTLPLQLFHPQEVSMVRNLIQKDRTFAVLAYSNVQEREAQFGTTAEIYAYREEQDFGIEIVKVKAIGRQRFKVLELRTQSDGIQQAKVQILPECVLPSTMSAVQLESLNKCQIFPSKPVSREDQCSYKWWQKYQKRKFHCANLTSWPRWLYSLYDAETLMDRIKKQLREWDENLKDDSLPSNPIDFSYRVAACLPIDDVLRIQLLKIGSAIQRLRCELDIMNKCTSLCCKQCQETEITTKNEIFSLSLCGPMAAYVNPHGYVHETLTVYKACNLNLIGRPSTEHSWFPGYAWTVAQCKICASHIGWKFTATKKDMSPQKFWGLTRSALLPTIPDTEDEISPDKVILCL
T1 sequence (Q16531 whole entry partner): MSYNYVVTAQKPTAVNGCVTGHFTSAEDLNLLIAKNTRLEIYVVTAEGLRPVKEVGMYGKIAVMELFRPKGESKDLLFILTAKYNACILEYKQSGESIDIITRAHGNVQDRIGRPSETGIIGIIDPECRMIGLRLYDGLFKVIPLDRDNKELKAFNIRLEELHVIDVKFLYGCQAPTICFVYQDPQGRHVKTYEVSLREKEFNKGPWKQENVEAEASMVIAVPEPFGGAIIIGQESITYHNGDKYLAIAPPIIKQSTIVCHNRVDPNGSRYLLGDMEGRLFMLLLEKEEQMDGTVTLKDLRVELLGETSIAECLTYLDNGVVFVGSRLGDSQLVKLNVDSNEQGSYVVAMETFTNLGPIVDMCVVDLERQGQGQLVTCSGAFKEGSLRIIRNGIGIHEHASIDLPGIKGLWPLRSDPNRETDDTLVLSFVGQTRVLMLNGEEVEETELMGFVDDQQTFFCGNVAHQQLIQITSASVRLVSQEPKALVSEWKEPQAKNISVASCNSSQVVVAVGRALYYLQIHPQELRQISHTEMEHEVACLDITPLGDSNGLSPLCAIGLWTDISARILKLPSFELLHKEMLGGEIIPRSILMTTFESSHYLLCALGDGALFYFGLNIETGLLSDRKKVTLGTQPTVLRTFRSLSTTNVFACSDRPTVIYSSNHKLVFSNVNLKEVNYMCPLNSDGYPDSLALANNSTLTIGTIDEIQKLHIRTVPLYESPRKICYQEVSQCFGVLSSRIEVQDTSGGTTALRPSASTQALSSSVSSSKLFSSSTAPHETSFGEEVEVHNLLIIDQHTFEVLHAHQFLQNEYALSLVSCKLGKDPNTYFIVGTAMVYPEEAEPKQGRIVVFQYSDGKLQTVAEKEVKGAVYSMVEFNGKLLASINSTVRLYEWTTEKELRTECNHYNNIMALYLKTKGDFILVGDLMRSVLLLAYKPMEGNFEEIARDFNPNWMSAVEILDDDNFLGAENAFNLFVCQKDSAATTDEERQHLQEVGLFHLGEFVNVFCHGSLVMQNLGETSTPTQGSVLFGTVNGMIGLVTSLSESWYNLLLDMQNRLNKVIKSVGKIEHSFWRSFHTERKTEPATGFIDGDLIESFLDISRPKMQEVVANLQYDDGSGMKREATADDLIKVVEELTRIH
Sequence of BTK (Q06187 whole entry): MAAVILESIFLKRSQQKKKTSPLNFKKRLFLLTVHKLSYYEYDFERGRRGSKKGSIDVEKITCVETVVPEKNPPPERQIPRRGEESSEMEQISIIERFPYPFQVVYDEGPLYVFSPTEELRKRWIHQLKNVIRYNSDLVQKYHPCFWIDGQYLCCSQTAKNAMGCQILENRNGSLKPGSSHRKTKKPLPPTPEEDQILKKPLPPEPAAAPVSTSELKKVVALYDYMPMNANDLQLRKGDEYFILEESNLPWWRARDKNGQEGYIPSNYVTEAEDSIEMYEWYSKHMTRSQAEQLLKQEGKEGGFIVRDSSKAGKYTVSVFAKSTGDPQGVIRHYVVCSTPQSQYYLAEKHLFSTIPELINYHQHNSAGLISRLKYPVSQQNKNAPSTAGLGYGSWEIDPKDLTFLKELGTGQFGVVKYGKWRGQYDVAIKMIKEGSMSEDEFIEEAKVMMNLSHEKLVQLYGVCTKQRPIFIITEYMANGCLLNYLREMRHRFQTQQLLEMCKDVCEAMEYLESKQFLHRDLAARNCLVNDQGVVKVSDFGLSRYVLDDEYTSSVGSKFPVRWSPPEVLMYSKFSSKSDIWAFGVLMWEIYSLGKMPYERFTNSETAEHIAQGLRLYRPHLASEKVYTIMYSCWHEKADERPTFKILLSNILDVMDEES
T2 sequence (Q9UKT9 whole entry): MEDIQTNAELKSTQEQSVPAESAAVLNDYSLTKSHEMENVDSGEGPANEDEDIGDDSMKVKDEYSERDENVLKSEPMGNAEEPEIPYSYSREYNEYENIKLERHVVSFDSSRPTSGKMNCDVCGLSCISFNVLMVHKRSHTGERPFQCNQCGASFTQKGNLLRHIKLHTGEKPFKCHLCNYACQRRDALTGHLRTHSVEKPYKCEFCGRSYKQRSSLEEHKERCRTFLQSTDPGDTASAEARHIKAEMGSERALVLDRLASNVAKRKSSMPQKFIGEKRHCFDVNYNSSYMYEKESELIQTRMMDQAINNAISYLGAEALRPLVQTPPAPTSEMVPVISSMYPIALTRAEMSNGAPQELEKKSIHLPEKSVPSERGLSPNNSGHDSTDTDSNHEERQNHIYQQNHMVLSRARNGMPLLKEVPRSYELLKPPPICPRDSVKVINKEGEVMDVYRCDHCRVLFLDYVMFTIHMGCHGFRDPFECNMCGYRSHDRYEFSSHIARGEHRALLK
T2 sequence (Q96SW2 whole entry): as the sequence (Q96SW2 whole entry) above
T2 sequence (Q16531 whole entry partner): as the sequence (Q16531 whole entry partner) above

| SMILES | IL-2 Secretion Anti-CD3/Anti-CD28 Stimulation (primary human T cells [1]; [3]) | IL-2 Secretion Anti-CD3/Anti-CD28 Stimulation (primary human T cells [1]; [4]) | IL-2 Secretion Anti-CD3/Anti-CD28 Stimulation (primary human T cells [1]; [5]) | IL-2 secretion compared to baseline (anti-CD3/anti-CD28 stimulation alone) (primary human T cells [1]) | DC50 (Ikaros; Mino cells) [nM] | DC50 (Ikaros; Rec-1 cells) [nM] | CD25 Staining Anti-CD3/Anti-CD28 Stimulation (primary human T cells [2]; 1.4 nM) | CD69 Staining Anti-CD3/Anti-CD28 Stimulation (primary human T cells [2]; 1.4 nM) | CD25 Staining Anti-CD3/Anti-CD28 Stimulation (primary human T cells [2]; 37 nM) | CD69 Staining Anti-CD3/Anti-CD28 Stimulation (primary human T cells [2]; 37 nM) | CD25 Staining Anti-CD3/Anti-CD28 Stimulation (primary human T cells [2]; 333 nM) | CD69 Staining Anti-CD3/Anti-CD28 Stimulation (primary human T cells [2]; 333 nM) | expression of CD25 and CD69 compared to baseline (anti-CD3/anti-CD28 stimulation alone) (primary human T cells [2]) | DC50 (Aiolos; Mino cells) [nM] | DC50 (Aiolos; Rec-1 cells) [nM] | EC50 (TMD8 cells) [nM] | EMAX (% viable cells) (TMD8 cells) [%] | EC50 (TMD8 C481S cells) [nM] | EMAX (% viable cells) (TMD8 C481S cells) [%] | further results |
| --- | --- | --- | --- | --- | --- | --- | --- | --- | --- | --- | --- | --- | --- | --- | --- | --- | --- | --- | --- | --- |
| CN1CCN([C@@H]2CCCN(c3cnc(C(N)=O)c(Nc4ccc(C5CCN(C(=O)CCOCCNc6cccc7c6C(=O)N(C6CCC(=O)NC6=O)C7=O)CC5)cc4)n3)C2)C1=O (stereo partly drawn) [Compound 25] | 2.42 | 3.35 | 3.86 | increased IL-2 secretion but not to the level observed with IMiDs | 29 | 63 | 1.25 | 1.18 | 1.30 | 1.33 | 1.39 | 1.39 | unchanged or decreased levels | 10 | 31 | – | – | – | – | – |
| CN1CCN([C@@H]2CCCN(c3cnc(C(N)=O)c(Nc4ccc5c(c4)CCN(C4CN(c6ccc7c(c6)C(=O)N(C6CCC(=O)NC6=O)C7=O)C4)C5)n3)C2)C1=O (stereo partly drawn) [Compound 30] | 1.59 | 3.82 | 3.95 | increased IL-2 secretion but not to the level observed with IMiDs | 1100 | 1000 | 1.01 | 1.01 | 1.14 | 1.10 | 1.17 | 1.16 | unchanged or decreased levels | 10 | 34 | – | – | – | – | – |
| C=CC(=O)N1CCC[C@@H](n2nc(-c3ccc(Oc4ccccc4)cc3)c3c(N)ncnc32)C1 [Ibrutinib, reference compound] | 0.84 | 0.85 | 0.34 | – | – | – | 0.92 | 0.89 | 0.74 | 0.74 | 0.22 | 0.22 | – | – | – | 3 | 16 | 1040 | 46 | EC50 (Rec-1 cells; Homo sapiens, Rec1, treatment time 72 h): 268 nM; EMAX (% viable cells) (Rec-1 cells; treatment time 72 h): 68%; EC50 (Mino cells; Homo sapiens): 498 nM; EMAX (% viable cells) (Mino cells): 79% |
| CN1CCN([C@@H]2CCCN(c3cnc(C(N)=O)c(Nc4ccc(N5CCN(CCCCc6cccc7c6CN(C6CCC(=O)NC6=O)C7=O)CC5)cc4)n3)C2)C1=O (stereo partly drawn) [Compound 17] | 1.59 | 3.14 | 2.92 | – | – | – | 1.06 | 1.05 | 1.34 | 1.23 | 1.11 | 1.12 | – | – | – | 0.6 | 7 | 3.71 | 15 | BTK Remaining (% relative to vehicle) (BTK; 10 mg/kg, 14 days of dosing): 20%; BTK Remaining (% relative to vehicle) (BTK; 30 mg/kg, 14 days of dosing): 15%; BTK Remaining (% relative to vehicle) (BTK; 30 mg/kg, 21 days of dosing): 7%; Tumor Growth Inhibition (relative to vehicle) (TMD8 tumor cells; 10 mg/kg, 14 days of dosing): 14%; Tumor Growth Inhibition (relative to vehicle) (TMD8 tumor cells; 30 mg/kg, 14 days of dosing): 66%; Tumor Growth Inhibition (relative to vehicle) (TMD8 tumor cells; 30 mg/kg, 21 days of dosing): 81% |
